Measured values as given in patent publication US12435010B1, “4-iodopyrazole coordination compound and preparation method and use thereof” (Institute of Applied Ecology, Chinese Academy of Sciences, priority 2024, dated 2025).

Assays:
[1] = system: nitrobacteria; experiment: nitrification inhibition activity in air-dry soil with urea; conditions: for Nitrification inhibition rate dN / Mass fraction of nitrate nitrogen in the sample solution ω1: 10.00 g air-dry soil, 0.10 g urea, 48 h; for Mass fraction of nitrate nitrogen in the sample solution ω1: control ω2=948.6
Method: 2. A method for determining nitrification inhibition activity is as follows. […] 4-iodopyrazole coordination compound prepared in Embodiment 1 were respectively weighed, and placed into 500 ml conical flasks respectively; 10.00 g of air-dry soil, 0.10 g of urea and 100 mL of phosphate buffer were added to each flask; the conical flasks were simultaneously place into a thermostatic culture oscillator (180 rpm) for oscillation for 48 h, and then the resulting solutions were filtered to determine mass fraction ω1 of nitrate nitrogen (including nitrite nitrogen) in the sample and the control sample solution respectively. Calculation of nitrification inhibition rate: the nitrification inhibition rate of binuclear ligands with different addition amounts was calculated, and the results are shown in Table 2. [formula] • where dN is nitrification inhibition rate (%); • ω1 is mass fraction of nitrate nitrogen (including nitrite nitrogen) in the sample; and • ω2 is mass fraction of nitrate nitrogen (including nitrite nitrogen) in the control sample, and ω2=948.6.

[2] = target: urease (Canavalia ensiformis, UniProt P07374); conditions: read-out: IC50 of urease inhibition; urease 10 KU/L, preincubated 1 h at 37° C., phosphate buffer pH 6.8 with 500 mM urea; modified Karber method
Chain of urease (P07374 whole entry, looked up): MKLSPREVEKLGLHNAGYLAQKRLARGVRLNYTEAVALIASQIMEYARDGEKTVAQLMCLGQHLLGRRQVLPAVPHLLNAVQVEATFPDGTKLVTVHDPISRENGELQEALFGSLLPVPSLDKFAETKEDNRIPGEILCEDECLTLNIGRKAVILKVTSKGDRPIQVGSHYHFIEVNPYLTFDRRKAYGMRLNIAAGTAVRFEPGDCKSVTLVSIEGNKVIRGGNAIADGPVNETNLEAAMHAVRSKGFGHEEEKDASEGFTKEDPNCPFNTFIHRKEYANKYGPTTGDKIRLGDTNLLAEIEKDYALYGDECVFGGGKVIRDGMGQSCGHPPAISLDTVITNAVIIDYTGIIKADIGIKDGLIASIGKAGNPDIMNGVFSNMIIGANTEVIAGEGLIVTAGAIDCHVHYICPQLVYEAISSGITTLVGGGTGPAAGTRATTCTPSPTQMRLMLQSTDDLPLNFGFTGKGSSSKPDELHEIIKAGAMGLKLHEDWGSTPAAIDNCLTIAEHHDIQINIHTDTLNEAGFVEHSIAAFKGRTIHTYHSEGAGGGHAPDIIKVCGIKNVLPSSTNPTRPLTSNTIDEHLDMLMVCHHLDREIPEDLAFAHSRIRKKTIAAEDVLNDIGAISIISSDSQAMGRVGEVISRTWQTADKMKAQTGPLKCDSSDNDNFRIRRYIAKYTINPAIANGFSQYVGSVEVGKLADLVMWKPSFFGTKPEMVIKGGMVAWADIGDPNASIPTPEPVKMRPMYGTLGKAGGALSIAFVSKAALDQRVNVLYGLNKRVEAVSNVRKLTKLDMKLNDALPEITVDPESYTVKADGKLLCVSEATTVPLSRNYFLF
Method: An endpoint of the testing was determined by the phenol red indicator, and the testing was stopped when the solution changed from pale yellow to red.

## Ic1cn[nH]c1.Ic1cn[nH]c1.[Cl][Cu][Cl] [copper chloride-linked 4-iodopyrazole coordination compound]
[1]; all addition amounts of Table 2
  nitrification inhibition rates: greater than 9%
[1]; mass of compound 0.03 g
  Nitrification inhibition rate dN: 9.16%
  Mass fraction of nitrate nitrogen in the sample solution ω1: 861.7
[1]; mass of compound 0.05 g
  Nitrification inhibition rate dN: 9.79%
  Mass fraction of nitrate nitrogen in the sample solution ω1: 855.8
[1]; mass of compound 0.07 g
  Nitrification inhibition rate dN: 11.09%
  Mass fraction of nitrate nitrogen in the sample solution ω1: 843.4
[1]; mass of compound 0.10 g
  Nitrification inhibition rate dN: 15.57%
  Mass fraction of nitrate nitrogen in the sample solution ω1: 800.9
[2]
  IC50: 2.58 ± 0.04 µM
